Experimental data reported in ChEMBL document CHEMBL3997792, “Identification of the First Selective Activin Receptor-Like Kinase 1 Inhibitor, a Reversible Version of L-783277” (J Med Chem, 2017).
Activity calls are given as the source filed them. The rule behind the calls is not given here.

Assays:
[1] = biological target: T1, Activin receptor type-1-like (Mus musculus) (UniProt Q61288); experiment: Inhibition of BMP9-stimulated ALK1 in mouse C2C12 cells assessed as reduction in Smad1/5 phosphorylation at 10 uM pretreated for 2 hrs followed by BMP9-stimulation after 30 mins by western blot analysis relative to control; type: cell-based
T1 sequence (whole entry): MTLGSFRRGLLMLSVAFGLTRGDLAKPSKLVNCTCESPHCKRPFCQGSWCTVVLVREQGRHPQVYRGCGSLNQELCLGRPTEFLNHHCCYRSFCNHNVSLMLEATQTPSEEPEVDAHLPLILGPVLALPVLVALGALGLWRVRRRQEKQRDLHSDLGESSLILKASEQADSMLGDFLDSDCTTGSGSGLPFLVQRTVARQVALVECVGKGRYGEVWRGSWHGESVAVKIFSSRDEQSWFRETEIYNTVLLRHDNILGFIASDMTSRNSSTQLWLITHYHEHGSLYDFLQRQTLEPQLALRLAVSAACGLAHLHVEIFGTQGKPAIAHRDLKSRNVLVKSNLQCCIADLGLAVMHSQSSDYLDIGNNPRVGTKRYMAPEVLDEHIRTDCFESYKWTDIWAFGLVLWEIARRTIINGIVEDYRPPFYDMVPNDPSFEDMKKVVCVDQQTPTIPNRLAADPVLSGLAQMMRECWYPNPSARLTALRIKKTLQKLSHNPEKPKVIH

[2] = biological target: T2, Activin receptor type-1-like (Homo sapiens, UniProt P37023); experiment: Inhibition of human ALK1 at 10 uM using casein as substrate in presence of [gamma-33P]-ATP by scintillation counting method relative to control
[3] = biological target: T2, Activin receptor type-1-like; experiment: Inhibition of human ALK1 using casein as substrate in presence of [gamma-33P]-ATP by scintillation counting method
TGF-beta receptor type-1 = biological target: T3, TGF-beta receptor type-1 (Mus musculus, UniProt Q64729); experiment: Inhibition of ALK5 in mouse C2C12 cells assessed as decrease in TGFbeta1-induced Smad1/5 phosphorylation at 0.1 uM by Western blot method; type: cell-based
T3 sequence (Q64729 whole entry): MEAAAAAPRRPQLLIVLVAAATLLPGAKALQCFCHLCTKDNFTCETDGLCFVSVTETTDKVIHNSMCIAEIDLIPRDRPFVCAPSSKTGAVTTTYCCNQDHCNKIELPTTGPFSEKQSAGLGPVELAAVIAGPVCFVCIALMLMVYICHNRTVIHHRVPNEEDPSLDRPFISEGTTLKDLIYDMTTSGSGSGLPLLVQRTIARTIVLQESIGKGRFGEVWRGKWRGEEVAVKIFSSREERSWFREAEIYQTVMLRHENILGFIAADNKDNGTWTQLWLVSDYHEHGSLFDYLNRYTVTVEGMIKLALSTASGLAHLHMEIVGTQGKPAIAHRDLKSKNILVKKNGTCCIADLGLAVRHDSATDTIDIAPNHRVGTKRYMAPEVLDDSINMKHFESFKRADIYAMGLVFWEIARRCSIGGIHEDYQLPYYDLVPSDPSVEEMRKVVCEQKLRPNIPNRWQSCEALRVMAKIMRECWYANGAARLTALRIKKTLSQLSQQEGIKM

T2 sequence (P37023 whole entry): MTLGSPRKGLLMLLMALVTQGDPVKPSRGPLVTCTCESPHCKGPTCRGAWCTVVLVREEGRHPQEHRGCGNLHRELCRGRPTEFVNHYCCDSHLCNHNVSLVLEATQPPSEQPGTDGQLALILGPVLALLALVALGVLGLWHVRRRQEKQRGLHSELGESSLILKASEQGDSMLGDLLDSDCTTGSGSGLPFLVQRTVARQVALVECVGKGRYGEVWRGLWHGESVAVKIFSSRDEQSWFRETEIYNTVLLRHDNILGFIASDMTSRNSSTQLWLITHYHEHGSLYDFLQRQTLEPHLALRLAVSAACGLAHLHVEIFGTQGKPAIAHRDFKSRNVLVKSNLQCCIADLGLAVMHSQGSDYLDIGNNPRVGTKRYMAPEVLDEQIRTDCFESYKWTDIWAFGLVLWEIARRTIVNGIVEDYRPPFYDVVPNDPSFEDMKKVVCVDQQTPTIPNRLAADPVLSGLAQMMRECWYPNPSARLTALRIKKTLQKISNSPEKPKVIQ

inhibition [1]	inhibition [2] [%]	IC50 [3] [µM]	inhibition (INH) (TGF-beta receptor type-1)	Structure (SMILES)
inactive	< 40			COc1cc(O)c2c(c1)CCC[C@H](O)[C@H](O)C(=O)NCC[C@H](C)OC2=O
70 to 80%		1.26		C=C1CCC[C@H](C)OC(=O)c2c(O)cc(OC)cc2CCC[C@H](O)[C@@H]1O
			Active	c1ccc2c(-c3cnn4cc(-c5ccc(N6CCNCC6)cc5)cnc34)ccnc2c1
